According to patent publication US20090042949A1, “Indoles Useful in the Treatment of Inflammation” (priority 2005, published 2009):

The compounds below were run against T1, mPGES-1 (Homo sapiens, UniProt O14684) (assay: mPGES-1 biological test (conversion of PGH2 to PGE2, HPLC analysis)). Conditions: mPGES-1 expressed in E. coli, membrane fraction; 25 min preincubation with inhibitor, 60 s with PGH2, room temperature.
T1 construct: made in house; host or cells: E. coli
T1 sequence (O14684 1-152): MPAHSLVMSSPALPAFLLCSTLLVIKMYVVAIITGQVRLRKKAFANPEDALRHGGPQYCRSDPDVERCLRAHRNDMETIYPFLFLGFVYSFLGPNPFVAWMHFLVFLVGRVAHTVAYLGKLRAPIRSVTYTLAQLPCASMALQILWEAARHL
Format: biochemical
Procedure: In the assay mPGES-1 catalyses the reaction where the substrate PGH2 is converted to PGE2. mPGES-1 is expressed in E. coli and the membrane fraction is dissolved in 20 mM NaPi-buffer pH 8.0 and stored at −80° C. In the assay mPGES-1 is dissolved in 0.1 M KPi-buffer pH 7.35 with 2.5 mM glutathione. The stop solution consists of H2O/MeCN (7/3), containing FeCl2 (25 mM) and HCl (0.15 M). The assay is performed at room temperature in 96-well plates. Analysis of the amount of PGE2 is performed with reversed phase HPLC (Waters 2795 equipped with a 3.9×150 mm C18 column). The mobile phase consists of H2O/MeCN (7/3), containing TFA (0.056%), and absorbance is measured at 195 nm with a Waters 2487 UV-detector.
The following is added chronologically to each well: • 1. 100 μL mPGES-1 in KPi-buffer with glutathione. Total protein concentration: 0.02 mg/mL. • 2. 1 μL inhibitor in DMSO. Incubation of the plate at room temperature for 25 minutes. • 3. 4 μL of a 0.25 mM PGH2 solution. Incubation of the plate at room temperature for 60 seconds. • 4. 100 μL stop solution. • 180 μL per sample is analyzed with HPLC.
`CC(C)(C)c1ccc(-c2ccc3c(c2)cc(C(=O)Nn2cnnc2)n3-c2ccc(OC3CCCC3)cc2)cc1` [Example 12, 5-(4-tert-Butylphenyl)-1-(4-cyclopentyloxyphenyl)indole-2-carboxylic acid[1,2,4]triazol-4-ylamide] was tested, and the IC50 was 550 nM.
Compound `CC(C)(C)c1ccc(-c2ccc3c(c2)cc(C(=O)NCC(=O)O)n3-c2ccc(OC3CCCC3)cc2)cc1` [Example 4, {[5-(4-tert-Butylphenyl)-1-(4-cyclopentyloxyphenyl)indole-2-carbonyl]-amino}acetic acid] has an IC50 of 1900 nM.
With `CC(C)Oc1ccc(-n2c(C(=O)NS(C)(=O)=O)c(Cl)c3cc(-c4ccc(C(F)(F)F)cn4)ccc32)cc1` [Example 13, N-[3-Chloro-1-(4-isopropoxyphenyl)-5-(5-trifluoromethylpyridin-2-yl)indole-2-carbonyl]methanesulfonamide] the IC50 was 2700 nM.
`CC(C)(C)c1ccc(-c2ccc3c(c2)cc(C(=O)NCCS(=O)(=O)O)n3-c2ccc(OC3CCCC3)cc2)cc1` [Example 2, 2-{[5-(4-tert-Butylphenyl)-1-(4-cyclopentyloxyphenyl)indole-2-carbonyl]-amino}ethanesulfonic acid] was tested, and the IC50 was 660 nM.
`CN(CC(=O)O)C(=O)c1cc2cc(-c3ccc(C(C)(C)C)cc3)ccc2n1-c1ccc(OC2CCCC2)cc1` [Example 5, {[5-(4-tert-Butylphenyl)-1-(4-cyclopentyloxyphenyl)indole-2-carbonyl]-methylamino}acetic acid] was tested, and the IC50 was 740 nM.
